Test results from US12398111B2, “Triazine compounds and pharmaceutical use thereof” (Japan Tobacco Inc., priority 2014, dated 2025).

Assays:
human mPGES-1 = target: T1, human mPGES-1 (Homo sapiens, UniProt O14684); test: Evaluation of human mPGES-1 enzyme inhibitory activity (PGE2 measured by HTRF, microsome fraction of CHO-S cells expressing human mPGES-1); type: biochemical; conditions: IC50 value; microsome fraction of CHO-S cells expressing human mPGES-1, PGE2 by HTRF
T1 construct: made in house; host or cells: FreeStyle CHO-S cells (Chinese hamster ovary), transient transfection with pcDNA3.1(+)/human mPGES-1; microsome fraction used
T1 sequence (O14684 1-152): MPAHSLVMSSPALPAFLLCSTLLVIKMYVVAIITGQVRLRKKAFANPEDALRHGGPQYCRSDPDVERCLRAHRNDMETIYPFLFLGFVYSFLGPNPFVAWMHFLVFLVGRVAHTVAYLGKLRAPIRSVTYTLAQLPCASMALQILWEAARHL
Procedure, shortened: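 Enzyme source: microsomes from CHO-S cells transfected with human mPGES-1 and cultured 48 hr, diluted to 5 μg/mL protein in reduced GSH (12.5 mmol/L KPB solution). Test articles were in 0.1 mol/L potassium phosphate pH 7.4, final DMSO 2% (v/v). PGE2 formed was quantified by HTRF.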

[1] = tested on: prostaglandins in guinea pig secondary aqueous humor; test: Effect on prostaglandin composition in guinea pig aqueous humor (instillation of 0.003% ophthalmic solution, LC/MS/MS); type: in vivo, Hartley male guinea pig; conditions: 24 hr after instillation of 0.003% ophthalmic solution
Description: A test article was dissolved in saline containing 0.5% polysorbate80 (Fluka) and 0.003% ophthalmic solution (pH 7.0-8.0) was prepared. The test article was administered to Hartley male guinea pig by instillation of 20 μL thereof to one eye by using a micropipette. After instillation, the lacrimal part was lightly fixed by gently pressing the lower eyelid for about 15 seconds. The opposite eye was treated in the same manner. To the vehicle group was administered the medium (0.5% polysorbate-containing saline) by a method similar to that for the test article. After 23 hr from the instillation, Mydrin P (registered trade mark) 0.5% ophthalmic solution (Santen Pharmaceutical Co., Ltd., general name: tropicamide/phenylephrine hydrochloride) was dropwisely added by one drop to the both eyes of a guinea pig to cause mydriasis. The guinea pig was anesthetized with Escain (registered trade mark) inhalation anesthetics (Pfizer Inc., general name: isoflurane), the cornea of the both eyes was tapped with a 30G injection needle, and the leaked aqueous humor (primary aqueous humor) was collected. One hour later (24 hr after instillation), the guinea pig was anesthetized again with isoflurane, and the secondary aqueous humor was collected in the same manner. The concentration of prostaglandins in the secondary aqueous humor obtained from each group (4 guinea pigs, 8 eyes) was measured by the LC/MS/MS system (Ultra high performance liquid chromatography: Nexera (registered trademark) manufactured by Shimadzu Corporation, mass spectrometer: […]), and the concentration ratio of each prostaglandin concentration relative to the total of all prostaglandin concentrations was calculated.

| SMILES | IC50 (human mPGES-1) | 6-keto-PGF1α (%) [1] | PGD2 (%) [1] | PGE2 (%) [1] | PGF2α (%) [1] | TXB2 (%) [1] |
| --- | --- | --- | --- | --- | --- | --- |
| CC(C)c1ccc(-c2nc(O)nc(-c3cc(CNC(=O)C(C)(C)C(F)(F)F)ccc3Cl)n2)cc1 [Example 1-98, N-{4-chloro-3-[4-hydroxy-6-(4-isopropylphenyl)-1,3,5-triazin-2-yl]benzyl}-3,3,3-trifluoro-2,2-dimethylpropionamide] | 0.9 nM | 31.2% | 16.3% | 38% | 14.2% | 0.3% |
| CC(C)COc1ccc(-c2nc(O)nc(-c3cc(CNC(=O)C(C)(C)C(F)(F)F)ccc3Cl)n2)cc1 [Example 1-109, N-{4-chloro-3-[4-hydroxy-6-(4-isobutoxyphenyl)-1,3,5-triazin-2-yl]benzyl}-3,3,3-trifluoro-2,2-dimethylpropionamide] | 2.5 nM | 37.5% | 18.9% | 29.5% | 14.1% | 0.1% |
| CCCOc1ccc(-c2nc(O)nc(-c3cc(CNC(=O)C(C)(C)C(F)(F)F)ccc3Cl)n2)cc1 [Example 1-122, N-{4-chloro-3-[4-hydroxy-6-(4-propoxyphenyl)-1,3,5-triazin-2-yl]benzyl}-3,3,3-trifluoro-2,2-dimethylpropionamide] | 1.3 nM | 27.7% | 23% | 37.3% | 11.7% | 0.2% |
| CC1(COc2ccc(-c3nc(O)nc(-c4cc(CNC(=O)C(C)(C)C(F)(F)F)ccc4Cl)n3)cc2)CC1 [Example 1-128, N-(4-chloro-3-{4-hydroxy-6-[4-(1-methylcyclopropylmethoxy)phenyl]-1,3,5-triazin-2-yl}benzyl)-3,3,3-trifluoro-2,2-dimethylpropionamide] | 1.3 nM | 29.7% | 19.3% | 36.2% | 13.9% | 0.8% |
| Cc1ccc(-c2nc(O)nc(-c3cc(CNC(=O)C(C)(C)C(F)(F)F)ccc3Cl)n2)cc1Cl [Example 1-129, N-{4-chloro-3-[4-(3-chloro-4-methylphenyl)-6-hydroxy-1,3,5-triazin-2-yl]benzyl}-3,3,3-trifluoro-2,2-dimethylpropionamide] | 0.6 nM | 18.1% | 9.2% | 62.5% | 10.2% | 0% |
| CC(C)c1cc(-c2nc(O)nc(-c3cc(CNC(=O)C(C)(C)C(F)(F)F)ccc3Cl)n2)ccc1C(F)(F)F [Example 1-130, N-{4-chloro-3-[4-hydroxy-6-(3-isopropyl-4-trifluoromethylphenyl)-1,3,5-triazin-2-yl]benzyl}-3,3,3-trifluoro-2,2-dimethylpropionamide] | 9 nM | 11.2% | 6.2% | 73.6% | 8% | 1% |
| CCCCOc1ccc(-c2nc(O)nc(-c3cc(CNC(=O)C(C)(C)C(F)(F)F)ccc3Cl)n2)cc1 [Example 1-131, N-{3-[4-(4-butoxyphenyl)-6-hydroxy-1,3,5-triazin-2-yl]-4-chlorobenzyl}-3,3,3-trifluoro-2,2-dimethylpropionamide] | 0.9 nM | 27.9% | 18.8% | 42.9% | 9.8% | 0.6% |
| CC(C)(C(=O)NCc1ccc(Cl)c(-c2nc(O)nc(-c3ccc(F)c(C4CC4)c3)n2)c1)C(F)(F)F [Example 1-135, N-{4-chloro-3-[4-(3-cyclopropyl-4-fluorophenyl)-6-hydroxy-1,3,5-triazin-2-yl]benzyl}-3,3,3-trifluoro-2,2-dimethylpropionamide] | 0.5 nM | 19.4% | 10.9% | 56.1% | 12.7% | 0.9% |
| CO[C@](C)(C(=O)NCc1ccc(Cl)c(-c2nc(O)nc(-c3ccc(Cl)c(C)c3)n2)c1)C(F)(F)F [Example 1-136, (R)—N-{4-chloro-3-[4-(4-chloro-3-methylphenyl)-6-hydroxy-1,3,5-triazin-2-yl]benzyl}-3,3,3-trifluoro-2-methoxy-2-methylpropionamide] | 0.5 nM | 17.3% | 7.4% | 66.7% | 7.9% | 0.7% |
| CCCOc1ccc(-c2nc(O)nc(-c3cc(CNC(=O)[C@@](C)(OC)C(F)(F)F)ccc3Cl)n2)cc1 [Example 1-137, (R)—N-{4-chloro-3-[4-hydroxy-6-(4-propoxyphenyl)-1,3,5-triazin-2-yl]benzyl}-3,3,3-trifluoro-2-methoxy-2-methylpropionamide] | 0.5 nM | 24.8% | 14.1% | 49.5% | 11.3% | 0.3% |
| Cc1ccc(-c2nc(O)nc(-c3cc(CNC(=O)C(C)(C)C(F)(F)F)ccc3Cl)n2)cc1C [Example 1-150, N-{4-chloro-3-[4-(3,4-dimethylphenyl)-6-hydroxy-1,3,5-triazin-2-yl]benzyl}-3,3,3-trifluoro-2,2-dimethylpropionamide] | 0.4 nM | 14% | 8% | 69% | 8.9% | 0.2% |
| CC(C(=O)NCc1ccc(Cl)c(-c2nc(O)nc(-c3ccc(OCC4CC4)cc3)n2)c1)(C(F)(F)F)C(F)(F)F [Example 1-169, N-{4-chloro-3-[4-(4-cyclopropylmethoxyphenyl)-6-hydroxy-1,3,5-triazin-2-yl]benzyl}-3,3,3-trifluoro-2-methyl-2-trifluoromethylpropionamide] | 2 nM | 40.3% | 17% | 28.7% | 13.5% | 0.5% |
| CC(C)COc1ccc(-c2nc(O)nc(-c3cc(CNC(=O)C4(C(F)(F)F)CC4)ccc3Cl)n2)cc1 [Example 1-178, 1-trifluoromethylcyclopropanecarboxylic acid 4-chloro-3-[4-hydroxy-6-(4-isobutoxyphenyl)-1,3,5-triazin-2-yl]benzylamide] | 1.4 nM | 36.6% | 20.1% | 30% | 13% | 0.3% |
| C[C@H](Oc1ccc(-c2nc(O)nc(-c3cc(CNC(=O)C(C)(C)C(F)(F)F)ccc3Cl)n2)cc1)C1CC1 [Example 1-184, N-(4-chloro-3-{4-[4-((S)-1-cyclopropylethoxy)phenyl]-6-hydroxy-1,3,5-triazin-2-yl}benzyl)-3,3,3-trifluoro-2,2-dimethylpropionamide] | 1.9 nM | 21.2% | 10.7% | 57% | 10.3% | 0.8% |
| C[C@@H](Oc1ccc(-c2nc(O)nc(-c3cc(CNC(=O)C(C)(C)C(F)(F)F)ccc3Cl)n2)cc1)C1CC1 [Example 1-185, N-(4-chloro-3-{4-[4-((R)-1-cyclopropylethoxy)phenyl]-6-hydroxy-1,3,5-triazin-2-yl}benzyl)-3,3,3-trifluoro-2,2-dimethylpropionamide] | 1.7 nM | 25.4% | 12.1% | 50% | 11% | 1.6% |
| Cc1cccc(COc2cccc(C(F)(F)F)c2-c2nc(O)nc(-c3ccc(C#Cc4ccccc4)cc3)n2)n1.Cl [Example 2-98, 4-[2-(6-methylpyridin-2-ylmethoxy)-6-trifluoromethylphenyl]-6-(4-phenylethynylphenyl)-1,3,5-triazin-2-ol hydrochloride] | 3.7 nM | 27.3% | 20.1% | 37.8% | 14.8% | 0% |
